According to patent publication EP3294317B1, “ENHANCED ANTIBIOTIC COMPOSITION” (Universitat Autònoma de Barcelona, priority 2015, dated 2016):

How the values were obtained:
A. baumannii ATCC 15308 = test: Broth microdilution MIC of other antibiotics with potentiator compounds (Example 2); assay type: cell-based, Acinetobacter baumannii
Protocol: Following the procedure of Example 1, ciprofloxacin, amikacin, levofloxacin, tigecycline, imipenem and the combination trimethoprim/sulfamethoxasole (1:19) were tested. All were purchased from Sigma-Aldrich Co.
Minimal inhibitory concentration (MIC) of the antibiotic or the test combinations were determined by the broth microdilution method.
Antibiotic stock solutions were prepared according to CLSI recommendations and sterilizing by passage through 0.20 µm filters.
Antimicrobial susceptibility testing of these isolates was performed using the broth microdilution (BMD) method, according to CLSI guidelines.
The fold increase in bacterial susceptibility to antibiotics when combined with the potentiator compound (expressed as MIC in the presence of 1.0% DMSO / MIC in the presence of 0.1 mM of each potentiator compound and 1.0% DMSO) are shown in Table 4: […]

S. aureus SA0001 = test: Broth microdilution MIC of compound of formula I alone (Example 5); assay type: cell-based; details: Staphylococcus aureus, Clinical strain, (resistant to penicillin), read-out: Compound of formula I MIC in the presence of 1.0% DMSO
Protocol: (§1) The antimicrobial effect of the compound of formula I of the invention was tested in front of specific Gram-positive bacterium, Staphylococcus aureus, an agent usually involved in hospital-acquired infections. For this experiment the S. aureus reference and clinical isolates shown in Table 8 were used, including Methicillin-resistant S. aureus (MRSA): TABLE 8
(§2) Antimicrobial susceptibility testing of these isolates was performed using the broth microdilution (BMD) method, according to CLSI guidelines (Example 1).
(§3) Selected compound of formula I was first dissolved in 100% of sterile-filtered dimethyl sulfoxide (DMSO, Sigma, D2438) to 20 mM. 100 µL of bacterial suspension (final OD550nm=0.01) in MHB were added to the compound dilutions in each well (concentration range from 0.2 mM to 3.125 µM), and the final suspension was mixed and incubated without shaking at 37° C for 24 h before developing with 30 µL of a 0.01% aqueous solution of resazurin. For the experiment all bacteria were first grown overnight in CAMHB using CLSI recommended incubation conditions.
(§4) The compound MIC, expressed in mM, was defined as the lowest concentration of compound at which no visible growth was obtained.

S. aureus SA0002 = test: as above; assay type: cell-based; details: Staphylococcus aureus, Clinical strain, (resistant to penicillin), read-out: Compound of formula I MIC in the presence of 1.0% DMSO
Protocol: as §1, §2, §3, §4

S. aureus USA 300 = test: as above; assay type: cell-based; details: Staphylococcus aureus, ATCC BAA-1556 / MRSA / USA300, Reference strain, read-out: Compound of formula I MIC in the presence of 1.0% DMSO
Protocol: as §1, §2, §3, §4

[1] = test system: Acinetobacter baumannii ATCC 15308; test: Colistin broth microdilution MIC with potentiator compounds (Example 1); assay type: cell-based; details: A. baumannii ATCC 15308; MIC in the presence of 1.0% DMSO / MIC in the presence of 0.1 mM potentiator compound and 1.0% DMSO; positive = increased, negative = decreased susceptibility, 1 = no effect
[2] = MIC in 1.0% DMSO / MIC with 0.1 mM potentiator compound and 1.0% DMSO

CN(C)CCNC(=O)c1cccc(CNC(=O)Nc2ccc3c(c2)Cc2ccccc2-3)c1 [I, N-[2-(dimethylamino)ethyl]-3-[(9H-fluoren-2-ylcarbamoylamino)methyl]benzamide]
Fold increase in bacterial susceptibility to Imipenem (A. baumannii ATCC 15308; [2]): 2 fold | Fold increase in bacterial susceptibility to Levofloxacin (A. baumannii ATCC 15308; [2]): 4 fold | Fold increase in bacterial susceptibility to Tigecycline (A. baumannii ATCC 15308; [2]): 2 fold | Fold increase in bacterial susceptibility to TMP/SMX (A. baumannii ATCC 15308; Trimethoprim:sulfamethoxazole 1:19, MIC in 1.0% DMSO / MIC with 0.1 mM potentiator compound and 1.0% DMSO): 4 fold | MIC (S. aureus SA0001): 200 µM | MIC (S. aureus SA0002): 100 µM | MIC (S. aureus USA 300): 200 µM | Fold increase in bacterial susceptibility to colistin [1]: +4 fold
